Measurements as given in article PMC4729137, “Functional analysis of androgen receptor mutations that confer anti-androgen resistance identified in circulating cell-free DNA from prostate cancer patients” (Genome Biology, 2016).
Residue numbers refer to the chain shown, from its start.

Key:
H875Y/T878A-AR = molecular target: T1, H875Y/T878A-AR (Homo sapiens, UniProt P10275, H875Y/T878A); format: cell-based; conditions: AR mutant H875Y/T878A; transfected PC3 cells; 0.1 nM R1881; drug 0 to 50 μM
T1 sequence (P10275 1-920 H875Y/T878A): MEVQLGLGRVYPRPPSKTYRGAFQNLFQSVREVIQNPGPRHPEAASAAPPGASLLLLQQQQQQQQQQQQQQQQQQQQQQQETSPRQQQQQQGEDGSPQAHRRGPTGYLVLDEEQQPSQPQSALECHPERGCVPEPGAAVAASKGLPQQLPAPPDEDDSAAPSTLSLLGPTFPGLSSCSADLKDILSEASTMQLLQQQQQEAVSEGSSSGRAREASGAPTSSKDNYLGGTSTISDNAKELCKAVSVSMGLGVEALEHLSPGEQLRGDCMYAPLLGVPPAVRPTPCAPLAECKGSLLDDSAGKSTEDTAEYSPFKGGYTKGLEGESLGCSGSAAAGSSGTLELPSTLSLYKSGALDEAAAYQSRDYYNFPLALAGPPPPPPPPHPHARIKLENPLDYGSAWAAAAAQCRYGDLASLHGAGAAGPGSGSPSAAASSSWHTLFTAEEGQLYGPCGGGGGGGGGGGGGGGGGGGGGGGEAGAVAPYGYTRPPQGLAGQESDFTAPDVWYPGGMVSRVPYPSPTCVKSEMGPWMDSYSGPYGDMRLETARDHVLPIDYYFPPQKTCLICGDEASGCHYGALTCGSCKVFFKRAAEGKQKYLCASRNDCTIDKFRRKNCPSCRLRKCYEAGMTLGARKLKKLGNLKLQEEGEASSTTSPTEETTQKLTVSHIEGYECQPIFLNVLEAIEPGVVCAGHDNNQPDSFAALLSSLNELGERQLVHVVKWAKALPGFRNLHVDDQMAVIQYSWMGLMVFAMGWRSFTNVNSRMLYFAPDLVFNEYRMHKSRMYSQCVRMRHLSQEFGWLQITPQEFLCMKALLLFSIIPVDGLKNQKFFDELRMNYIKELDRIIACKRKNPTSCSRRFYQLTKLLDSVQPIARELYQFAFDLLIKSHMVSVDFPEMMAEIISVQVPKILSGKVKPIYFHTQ
Source text: (§1) Full-length human AR (WT-AR) was encoded on a pcDNA3.1 expression plasmid (Life technologies). The LBD point mutations (single and multiple) were generated using the QuikChange II Site-Directed Mutagenesis Kit (Agilent Technologies) as per manufacturer’s instructions using WT-AR as the template. The mutagenic oligonucleotide primers were designed individually with the desired mutation in the middle of the primer with approximately 10 to 15 bases of correct sequence on both sides.
(§2) PC3 cells were seeded and transfected as described above. […] A non-stimulated/no R1881 control was used. After 24 h, cells were lysed and AR-dependent luciferase activity was quantified. Each concentration was assayed in quadruplicate n = 4, with a biological replicate of n = 3. Results were averaged and normalized by expressing them as a percentage of WT AR activity.

M896T-AR = molecular target: T2, M896T-AR (Homo sapiens, UniProt P10275, M896T); format: cell-based; conditions: AR mutant M896T; transfected PC3 cells; 0.1 nM R1881; drug 0 to 50 μM
T2 sequence (P10275 1-920 M896T): T1 sequence (P10275 1-920 H875Y/T878A) with Y875H, A878T, M896T
Source text: as §1, §2

- Agonist response to treatment (H875Y/T878A-AR): Yes
- Agonist response to treatment (M896T-AR): Partial
SMILES: CC(C)(O)C(=O)Nc1ccc([N+](=O)[O-])c(C(F)(F)F)c1 [Hydroxyflutamide, hydroxyflutamide]
